From publication PMC11431997, “Baicalin Inhibits FIPV Infection In Vitro by Modulating the PI3K-AKT Pathway and Apoptosis Pathway” (International Journal of Molecular Sciences, 2024)
In brackets after ≈: the same amount, converted by molar mass.

Tests used:
CRFK cells = assay: Cytotoxicity assay of the compounds (CCK-8); assay type: cell-based, feline; settings: cat, 72 h
Protocol: (§1) CRFK cells were seeded in 96-well cell culture plates at a density of 1 × 10^4 cells/well and incubated at 37 °C with 5% CO2 until the cell density reached more than 90%. Then, the medium was discarded, and the cells were washed twice with PBS. The compound to be tested was diluted in 10 successive gradients with MM at a 2-fold multiplicity (at the same time, there was a cell control group of 100 μL of MM, and 3 replicate wells were set for each concentration and group) and incubated at 37 °C with 5% CO2 for 72 h; then, the liquid in the plate was discarded and washed twice with PBS. Afterwards, the cytopathic ratios (CRs) of the compounds to cells were calculated according to the instructions of the Cell Counting Kit-8 (MCE, NJ, USA), and the CC50s of the compounds and the MNTCs at which the compounds could survive more than 90% of the cells were calculated using GraphPad Prism 10. In subsequent experiments, the final concentrations of the compounds after addition were the MNTCs of the compounds unless otherwise specified.

[1] = Cytotoxicity assay of the compounds (CCK-8); assay type: cell-based, feline; settings: cat
Protocol: as §1

FIPV (BJ-01) [2] = assay: Cellular viral load by qPCR (FIPV-N gene); assay type: cell-based, feline infectious peritonitis virus
Protocol: CRFK cells were seeded in a 96-well cell culture plate at a density of 1 × 10^4 cells/well and cultured at 37 °C in 5% CO2 until the cell density was greater than 90%. After the cells were washed twice with PBS, 50 μL of compound and 50 μL of FIPV were added to each well simultaneously, and the plates were incubated at 37 °C and 5% CO2 for 12, 24, 36, 48, 60, and 72 h (at the same time, a cell control group with only 100 μL of MM and a viral control group with only 100 μL of FIPV were added). There were 3 replicate wells for each group and incubation time. After the liquid in the plate was discarded, the cells were washed twice with PBS. Then, the cells were digested by adding tryptic digest at 30 μL/well, the cell suspension was collected, and the cell precipitates were collected by centrifugation at 3000 rpm for 1 min. Total cellular RNA was extracted after the cell precipitates were resuspended in PBS according to the instructions of the FastPure Viral DNA/RNA Mini Kit Pro (Vazyme, Nanjing, China). Then, reverse transcription was performed using HiScript IV RT SuperMix for qPCR (+gDNA wiper) (Vazyme, Nanjing, China). The sequences of the primers used for the detection of the FIPV-N (GenBank: MK840958.1) were […] (F: 5′→3′) and […] (R: 5′→3′). The sequences of the primers used for the detection of the GAPDH genes were […] (F: 5′→3′) and […] (R: 5′→3′). […]

FIPV (BJ-01) [3] = assay: Impact of the compound on FIPV adsorption (cells pre-incubated with compound, CCK-8); assay type: cell-based, feline infectious peritonitis virus; settings: cells co-cultured with baicalin before FIPV, all times
Protocol: (§2) According to previous methods, CRFK cells were seeded in 96-well cell culture plates at a density of 1 × 10^4 cells/well and cultured at 37 °C in 5% CO2 until the cell density was greater than 90%. Then, the medium was discarded, and the cells were washed twice with PBS. The compound was first added into 96-well cell culture plates at 100 μL/well and then incubated at 37 °C and 5% CO2 for 0.25, 0.2, 1, 2, 4, and 6 h, respectively, then incubated at 4 °C for 1 h. After that, the liquid in the plates was removed and washed with PBS twice. Then, added FIPV into cells at 100 μL/well and incubated at 37 °C and 5% CO2 (at the same time, a cell control group with only 100 μL of MM and a viral control group with only 100 μL of FIPV were added). There were 3 replicate wells for each compound and group. After the CPE of the viral control group reached more than 80%, the liquid in the culture plate was removed and washed twice with PBS. Afterwards, the IR of the compounds against the virus was computed according to the directions of the Cell Counting Kit-8.

FIPV (BJ-01) [4] = assay: Direct inactivation of FIPV (compound pre-mixed with virus, CCK-8); assay type: cell-based, feline infectious peritonitis virus
Protocol: as §2, with “mixed with FIPV in the ratio of 1:1 and incubated at 37 °C and 5% CO2 for 30, 60, 90, 120, and 150 min, respectively; then, the mixture of different incubation durations were” for “first”, “and” for “and then”, “CO2, respectively” for “CO2 for 0.25, 0.2, 1, 2, 4, and 6 h, respectively, then incubated at 4 °C for 1 h. After that, the liquid in the plates was removed and washed with PBS twice. Then, added FIPV into cells at 100 μL/well and incubated at 37 °C and 5% CO2”

## O=C(O)[C@H]1O[C@@H](Oc2cc3oc(-c4ccccc4)cc(=O)c3c(O)c2O)[C@H](O)[C@@H](O)[C@@H]1O [Baicalin]
CRFK cells
  MNTC (maximum noncytotoxic concentration): 31.36 µg/mL
[1]
  CC50 at 72 h: 114 µg/mL (≈ 257 µM)
FIPV (BJ-01) [2]; 48 h compared with 36 h of baicalin treatment, p < 0.05
  FIPV-N gene copy number: significantly decreased
FIPV (BJ-01) [2]; FIPV-infected CRFK cells, qPCR at 12-72 h
  time of peak FIPV-N gene copy number after baicalin treatment: 36 h
FIPV (BJ-01) [3]
  inhibition rate on FIPV infection (adsorption): ≤ 50%
FIPV (BJ-01) [4]; 150 min of co-culture of baicalin with FIPV
  inhibition rate on FIPV (direct inactivation): ~100%
FIPV (BJ-01) [4]; baicalin co-cultured with FIPV 30-150 min before addition to CRFK cells, all times
  inhibition rate on FIPV (direct inactivation): more than 50%
